Source: the METLIN SMRT retention time set (Domingo-Almenara et al. 2019)

test: gradient 5% acetonitrile 3 min, to 50% in 2 min, to 85% in 15 min, held 3 min, 100 µL/min; details: column: Zorbax Extend-C18 2.1 x 50 mm; eluents: water / acetonitrile, 0.1% formic acid
How it was run: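 Standards, all pure, were combined into mixtures of ~100 molecules and run at 100 μL/min on a Zorbax Extend-C18 column (2.1 × 50 mm, 1.8 μm) with water and acetonitrile, each containing 0.1% formic acid. A coupled quadrupole time-of-flight mass spectrometer operated in positive and negative ionization mode. Retention time values come from computationally picked adduct peaks, each inspected manually.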

RP-LC retention time [s]	SMILES
1050	Cn1c(C(=O)NCCc2ccccc2)cc2sc(Cl)cc21
683	COc1ccc(NC(=O)NC2CCN(c3ccccc3)C2=O)cc1OC (stereo unspecified)
627	CN(C)C(=O)CSc1ncnc2sccc12
555	CC1CCN(c2nc(NCCN3CCOCC3)nc(N3CC4CC(C3)c3cccc(=O)n3C4)n2)CC1 (stereo unspecified)
697	O=C(O)c1ccc(Nc2c(-c3ccccc3)nc3cnccn23)cc1
710	Cc1ccccc1Nc1c(-c2ccc(O)cc2)nc2ccc(Cl)cn12
1060	CCc1ccccc1NC(=O)c1cn(CC2CCCO2)cc2c(=O)n(-c3ccccc3)nc1-2 (stereo unspecified)
614	Cc1cccc2c(C(=O)NC3CC3)cc(=O)[nH]c12
599	CCc1noc2nc(CCC(=O)NCCN3CCN(CC)CC3)nc(N3CCCCC3)c12
906	Cc1cc(C)cc(Oc2nccn3c(=O)n(CC(=O)Nc4c(C)cccc4C)nc23)c1
886	O=C(Cc1csc(Nc2cccc(C(F)(F)F)c2)n1)NCc1cccs1
974	COc1cccc(-c2noc(C3CCCN3C(=O)Nc3ccc(OC)c(Cl)c3)n2)c1 (stereo unspecified)
760	Cc1ccc(CN2C[C@@H]3C(=O)N(Cc4ccc5c(c4)OCO5)C(=O)[C@@H]3C2)cc1
829	COc1ccc(C(=O)Nc2ccc(N3CCN(C4CCCC4)C3=O)nc2)c(OC)c1
609	COc1ccc(N2CCN(c3cc(C(=O)O)c4cc(NS(C)(=O)=O)ccc4n3)CC2)cc1
726	Cc1cc(F)ccc1NC(=O)Cn1ccc2sccc2c1=O
999	O=C(c1cccc(Cl)c1)N1CCc2cc(-c3ccno3)ccc21
848	CC(NC(=O)C1CCN(C(=O)c2ncn3c2COC(c2ccccc2)C3)CC1)c1ccc(F)cc1 (stereo unspecified)
657	Cn1c(=O)c2c(nc3n2CC(=O)N(CCc2ccccc2)C3)n(C)c1=O
783	O=C(Nc1nccs1)c1ccc(Br)cc1F
579	O=C(Nc1ccc(-c2nc3ccccc3[nH]2)cc1)c1cccs1
835	CCCn1cc(CCNC(=O)Nc2ccc(F)c(Cl)c2)c2cccnc21

RP-LC retention time [s]	SMILES
628	O=C(Nc1ccc2[nH]nc(-c3ccncc3)c2c1)[C@@H]1CCN(CC(=O)N2CCN(c3ccc(-c4ncccn4)cc3)CC2)C1
1070	CCc1nc2cc(-c3noc(COc4ccc(OC)cc4)n3)ccc2o1
755	CCC(C(=O)Nc1cc(-c2nc3ccccc3[nH]2)ccc1C)c1ccccc1 (stereo unspecified)
1130	Cc1ccc(-n2cc(C(=O)OCC(=O)OC(C)C)c3ccccc3c2=O)cc1
721	COc1cc(OC)c(NC(=O)Nc2c(-c3cccc(C)c3)nc3ccccn23)cc1Cl
843	O=C(Cc1cccs1)NC(Cc1ccccc1)c1nnc(N2CCCCC2)o1 (stereo unspecified)
1020	O=C(NCc1ccc(F)cc1)C1CCCN(c2nccnc2Sc2ccccc2)C1 (stereo unspecified)
616	Cc1ccc(=O)n(CCNC(=O)c2cc(C)oc2C)n1
958	CCn1cc(-c2nc(C(=O)NCc3ccc(OC)cc3)cs2)c2cccnc21
1120	CCOC(=O)c1noc2nc(C)nc(Nc3cccc(F)c3)c12
907	Cc1ccc2[nH]cc(CCN3CC(C(=O)NC4CCCCCCC4)CC3=O)c2c1 (stereo unspecified)
701	COc1ccc(NS(=O)(=O)c2cc(-c3[nH]ncc3C(=O)N3CCCC3)oc2C)cc1F
1400	CCCCOc1ccc(-c2csc(Nc3ccccc3)n2)cc1
652	COc1ccc(OC)c(S(=O)(=O)N2CCC(n3cnnc3C)CC2)c1
661	CC1CCCCN1CCCNC(=O)CN1C(=O)c2ccccc2Sc2ncccc21 (stereo unspecified)
696	Cc1c(-c2nnc(C(=O)NCCCN3CCOCC3)o2)oc2c(C)cccc12
1240	CCOc1nc2ccccc2nc1N1CCCC(C(=O)Nc2ccc(C(C)C)cc2)C1 (stereo unspecified)
740	COc1ccccc1OCc1nn2c(-c3ccccn3)nnc2s1
839	O=C(NC1CC1)c1ccc(OCC2CCN(C(=O)c3cc(F)ccc3Cl)CC2)cc1
768	Cc1cc(C)n(Cc2ccc(C(=O)N3CCCN(c4cc(=O)n(C(C)C)c(=O)n4C(C)C)CC3)o2)n1
620	Cn1c(=O)c2nc(SCCC(=O)Nc3ccc(N4CCOCC4)cc3)n(C)c2n(C)c1=O
743	O=C(c1ccccc1C(F)(F)F)N1CCC2(C1)C(=O)Nc1ccccc12 (stereo unspecified)

RP-LC retention time [s]	SMILES
655	CS(=O)(=O)N1CCC(c2nnc(-c3ccco3)s2)CC1
615	Cc1ccc(CNS(=O)(=O)c2cc3n(c2)CCCNC3=O)o1
640	COc1ccccc1C(=O)NCCc1c[nH]c2ccc(Cl)cc12
837	CCc1noc(-c2ccc(-n3ncc(C(=O)NC(C)C)c3C)nc2)n1
599	COc1ccc(N2CCN(C(=O)c3cc(-c4ccncc4)cn3C)CC2)cc1
1140	Cc1ccc(F)cc1NC(=O)Cn1nc(N2CCCCCC2)c2ccccc2c1=O
1130	O=C(Nc1ccccc1Cl)C(=O)c1c[nH]c2ccccc12
1150	O=C1C(=C2C=C(c3ccccc3)OC3=C2CCCC3)C(=O)c2ccccc21
792	CC(C)n1cnc(S(=O)(=O)N2CCCC(C(=O)Nc3ccc(F)cc3F)C2)c1 (stereo unspecified)
917	O=C(NCCC1=CCCCC1)C1CCN(Cc2cc3ccccc3n2Cc2ccc(Cl)cc2)CC1
598	CCN(CC)CCCNC(=O)C1CCCN(c2nnc(C)c3c(C)n(-c4ccc(Cl)cc4)nc23)C1 (stereo unspecified)
780	O=C(Nc1nc2c(s1)CN(S(=O)(=O)/C=C/c1ccccc1)CC2)c1cnccn1
899	CCC(C(=O)N1CCc2ccccc21)n1cnc2nc3c(cc2c1=O)CCCC3 (stereo unspecified)
938	CCN(CC)C(=O)c1cc(C)nc2c1c(=O)n(Cc1ccccc1C)c(=O)n2C
552	Cc1nc([C@@H]2CN(C(=O)c3sccc3C)C[C@H]2C(N)=O)n[nH]1
683	Cc1nn(-c2ccc(-c3ccccc3)nn2)c(C)c1S(=O)(=O)N1CCN(C(C)C)CC1
728	CCOC(=O)Cc1csc(NC(=O)CSc2nc(C)cc(C)n2)n1
723	COc1cccc(CNC(=O)Nc2cc3c(cc2N2CCOCC2)n(C)c(=O)n3C)c1
934	COc1cccc(-c2cc(CNC(=O)c3sc(-n4cccc4)nc3C)no2)c1
1230	Cc1cccc(CNC(=O)c2cc(C(C)(C)C)n3nccc3n2)c1
630	Cc1ccc2c(C(=O)Nc3ccc(N4CCOCC4)cc3)cc(NC(=O)C3CCC3)cc2n1

SMILES	RP-LC retention time [s]
COc1ccc(Cn2cc(C(=O)O)nn2)cc1F	641
